This is an account of results in patent publication US6949558B2, “Enhancement of taxane-based chemotherapy by a CDK1 antagonist” (Yale University, priority 2001, dated 2005).

One test concerns MCF-7 cells. In words: Apoptosis by DNA content analysis and flow cytometry in MCF-7 cells. In kind it is cell-based, human. Here is the method:
Cervical carcinoma HeLa (functionally inactivated p53) cells or breast carcinoma MCF-7 (wild type p53) cells were plated at 50-60% confluency in C-6 wells. […]
After 4, 8, 16, and 32 hours of incubation, without removing taxol from the wells, purvalanol A was added at three increasing concentrations, 1, 10 and 20 uM (FIG. 1). A control was performed with addition of purvalanol A at the 0-h time point.
The cell populations were harvested at increasing time intervals from the 0-h time point or corresponding to the addition of purvalanol A. Apoptosis was analyzed by DNA content analysis and flow cytometry (DAPI staining).
A general note: In flow cytometry, cells or beads pass a laser one at a time.

In test [1] the test system is p34^cdc2 kinase activity (MPM-2 epitope) in MCF-7 cells. In words: MPM-2 mitotic phosphoepitope expression (p34^cdc2 kinase activity) in MCF-7 cells. Format: cell-based, human. Here is the method: MPM-2 Mitotic Phosphoepitope Expression: For detection of mitotic phosphoproteins (D. D. Vandre et al. (1989) J. Cell Sci. 94: 245-58), MCF-7 cells (1-2×10^5 cells/60 mm dish) were treated with taxol (2 μM), adriamycin (100 nM), 50 or 300 J/m^2 UVB irradiation and cultured for 0, 8, 16, 24 or 36 h at 37° C. Cells were fixed in 70% ethanol, labeled with MPM-2 antibody (6 μg/ml) followed by addition of goat anti-mouse FITC (Boehringer Mannheim) for 1 h at 22° C. in the presence of 5 μg/ml propidium iodide (PI) containing 50 μg/ml RNase A. Samples were analyzed on a FACScan (Becton Dickinson, Mountain View, Calif.), using CellQuest software.
MPM-2 Mitotic Phosphoepitope Expression: For detection of mitotic phosphoproteins (D. D. Vandre et al. (1989) J. Cell Sci. 94: 245-258), MCF-7 cells (1-2×10^5 cells/60 mm dish) were treated with taxol (0.2 μM), or vincristine (100 nM) for increasing time intervals (8-36 h) at 37° C. Cells were fixed in 70% ethanol, labeled with MPM-2 antibody (6 μg/ml; Upstate Biotechnology, Lake Placid, N.Y.) followed by addition of goat anti-mouse FITC (Boehringer Mannheim) for 1 h at 22° C. in the presence of 5 μg/ml propidium iodide containing 50 μg/ml RNAse A. Samples were analyzed on a FACScan (Becton Dickinson, Mountain View, Calif.), using CellQuest software. Data are expressed as %MPM-2 positive cells in the entire population.

Test [2] concerns survivin expression in PC3 cells. Put plainly: Survivin expression by Western blotting in PC3 cells. To be noted: taxol. Format: cell-based.
Test [3] concerns survivin expression in HT2-19 cells. In words: Survivin expression by Western blotting in HT2-19 cells. In kind it is cell-based. To be noted: taxol 0.2 μM. The source says: Cell Cultures and Antibodies: Breast carcinoma MCF-7, prostate carcinoma PC3, and cervical carcinoma HeLa cells (American Type Culture Collection, Manassas, Va.) were maintained in culture according to the supplier's recommendations. HT2-19 cells with conditional inactivation of the p34^cdc2 gene were described previously (J. E. Itzhaki et al. (1997) Nat. Gen. 15: 258-265). In this cell line, removal of IPTG from the culture medium results in inactivation of the second p34^cdc2 allele (J. E. Itzhaki et al. (1997) Nat. Gen. 15: 258-265). For spindle checkpoint activation, the various cell types were treated with taxol (0.2-2 μM, Sigma Chemical Co., St. Louis, Mo.), vincristine (100 nM, Sigma) or cisplatin (3 μM, Sigma) for 16 h at 37° C. For genetic ablation of p34^cdc2, HT2-19 cells were washed and cultivated in the absence of IPTG for 48-72 h before analysis of apoptosis (see below) or expression of survivin or p34^cdc2, by Western blotting. In some experiments, taxol (0.2 μM) was added to HT2-19 cells simultaneously with the withdrawal of IPTG, and cells were processed as described above. […] For viral transduction, HT2-19 cells in the absence of IPTG were infected with pAd-GFP or pAd-Survivin at multiplicity of infection (m.o.i.) of 50, and analyzed after a 48-72 h culture for changes in cell cycle progression and apoptosis. […]
For orientation: In western blotting, separated proteins are transferred to a membrane and probed.

A further test relates to MCF-7 tumors. Put plainly: Breast cancer xenograft model (Example 8). To be noted: taxol alone 2.5 or 5 mg/kg, Purvalanol A alone 20 mg/kg, i.p. Format: in vivo, CB17 SCID/beige mice. Here is the method:
Breast Cancer Xenograft Model: All experiments involving animals were approved by the institutional animal cure and use committee. Six- to eight-week old female CB17 SCID/beige mice (Taconic Farms, Germantown, N.Y.) were injected s.c. into the flanks with 2.5×10^6 exponentially growing MCF-7 cells in 250 μl of sterile PBS, pH 7.4. […] Animals were injected i.p. with taxol alone (2.5 or 5 mg/kg), Purvalanol A alone (20 mg/kg) or the sequential combination of taxol-Purvalanol A for two consecutive days each divided by a day with no treatment. For single agent treatment, vehicle was given in place of taxol or Purvalanol A with the same schedule. Each complete cycle was separated by 2 d without treatment. Tumor volume was measured in the three dimensions with a caliper. Animals with tumor burden >3000 mm^3 were sacrificed (Survival).
Statistical Analysis: All in vitro experiments were repeated at least three times. […] The survival curves were compared using the log-rank test. This test generates a P value testing the null hypothesis that the survival curves are identical in the overall populations.

Setting [4] is: taxol 2 μM, adriamycin 100 nM, cis-platin 3 μM (Example 7).

For the compound `CC(=O)O[C@H]1C(=O)[C@@]2(C)[C@H]([C@H](OC(=O)c3ccccc3)[C@]3(O)C[C@H](OC(=O)[C@H](O)[C@@H](NC(=O)c4ccccc4)c4ccccc4)C(C)=C1C3(C)C)[C@]1(OC(C)=O)CO[C@@H]1C[C@@H]2O` [taxol, Paclitaxel], the “apoptosis (hypodiploid cell fraction)” value in the test on MCF-7 cells (taxol 0.2 μM for 0 to 32 hours) is recorded as “virtually no apoptosis”. For the same compound, the cell cycle arrest entry is listed as “uniform M arrest” in the test with MCF-7 cells (taxol 0.2 μM for 0 to 32 hours), “G2/M arrest” with MCF-7 cells (setting [4]) and “sustained (48-72 h) mitotic arrest” with MCF-7 cells (taxol 0.2-2 μM (Example 8)). In the test on MCF-7 cells (setting [4]), the apoptosis entry is recorded as “negligible apoptosis”. Moreover, the MPM-2 expression result in test [1] (taxol 2 μM (Example 7)) is recorded as “elevated MPM-2 expression”. In addition, the “p34^cdc2 kinase activity (MPM-2 phosphoepitope expression)” value in test [1] (taxol 0.2-2 μM (Example 8)) was “elevated p34^cdc2 kinase activity”. The survivin expression entry in test [2] is “increased expression of survivin”; in test [3] (HT2-19 cells in the absence of IPTG (p34^cdc2 −/−)) it was “only a minimally detectable increase in survivin expression”. The survivin levels result in test [3] (IPTG+ HT2-19 cells (p34^cdc2 +/−)) is given as “increased survivin levels”. In addition, the “kinetics of tumor growth” value in the test with MCF-7 tumors is recorded as “did not affect the kinetics of tumor growth”.
